Laboratory results from patent US20240262815A1, “HETEROARYL DERIVATIVE, METHOD FOR PREPARING SAME, AND PHARMACEUTICAL COMPOSITION COMPRISING SAME AS ACTIVE INGREDIENT” (VORONOI INC., priority 2021, published 2024).

Legend:
BT-474 cancer cells = assay: Inhibitory activity against proliferation of BT-474 cancer cells (CellTiter-Glo); assay type: cell-based; details: Homo sapiens, BT-474 ErbB2-overexpressing cancer cells, 120 hours after treatment
Experimental: To evaluate the inhibitory activity of a compound according to the present invention against the proliferation of ErbB2-overexpressing cancer cells, the following experiment were performed.
10% FBS-added McCOY'S 5A was used for SK-BR-3 cancer cells. 20% FBS-added RPMI-1640 was used for BT-474 cancer cells. Transduced Ba/F3 cells were cultured in a RPMI-1640 medium to which 1 μg/ml puromycin (Invitrogen) was added.
48 hours before compound treatment, each type of the SK-BR-3 and BT-474 cells were seeded at 5,000 cells/well in a white clear bottom 96 well plate (Corning). The compound was diluted in dimethyl sulfoxide (SK-BR-3: 3-fold dilution, a total of 12 concentrations, BT-474: […], a total of 12 concentrations) and injected at 1 μl to have the final concentration of 0.2 nM to 5 μM. As for measurement of live cells, 120 hours after treatment with the compound, a CellTiter-Glo luminescent cell-viability reagent (Promega) was used to store the cells at room temperature for 10 minutes, followed by measurement of luminescence using a reader (SynergyNeo, Biotek). Each test was repeated three times.
The result values were calculated as a cell growth rate (%) compared to the control group. A graph was plotted using the GraphPad Prism version 8.3.0 program, and GI50 values were calculated.

SK-BR-3 cancer cells = assay: Inhibitory activity against proliferation of SK-BR-3 cancer cells (CellTiter-Glo); assay type: cell-based; details: Homo sapiens, SK-BR-3, 120 h, ErbB2-overexpressing SK-BR-3 cells, 120 hours after treatment
How it was run: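 GI50 derived from % growth relative to control, measured by CellTiter-Glo luminescence after 120 h compound exposure (12 concentrations, 0.2 nM-5 μM final, n=3). BT-474 grown in RPMI-1640/20% FBS, SK-BR-3 in McCOY'S 5A/10% FBS; seeding 48 h pre-treatment.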

Structure (SMILES)	GI50 (BT-474 cancer cells) [µM]	GI50 (SK-BR-3 cancer cells) [µM]
C=CC(=O)Nc1cc(Nc2cc(N3OCC[C@@H]3c3cccc(-c4cccc(F)c4)c3)ncn2)c(OC)cc1N1C[C@@H](C)N(C(=O)OC(C)(C)C)[C@@H](C)C1 [Example 328, tert-butyl (2S,6R)-4-(2-acrylamido-4-((6-((R)-3-(3′-fluoro-[1,1′-biphen-yl]-3-yl)isoxazol-idin-2-yl)pyrim-idin-4-yl)amino)-5-methoxyphenyl)-2,6-dimethylpiper-azine-1-carboxylate]	0.05 to 0.5	
C=CC(=O)Nc1cc(Nc2cc(N3OCC[C@@H]3c3cccc(-c4ccc(F)cc4F)c3)ncn2)c(OC)cc1N1CCN(C)[C@@H](C)C1 [Example 327, N-(5-((6-((R)-3-(2′,4′-difluoro-[1,1′-biphenyl]-3-yl)-isoxazolidin-2-yl)-pyrimidin-4-yl)-amino)-2-((S)-3,4-dimethylpiperazin-1-yl)-4-methoxy-phenyl)acrylamide]	< 0.05	
C=CC(=O)Nc1cc(Nc2cc(N3OCC[C@@H]3c3cccc(-c4cccc(F)c4F)c3)ncn2)c(OC)cc1N1CCN(C2COC2)CC1 [Example 340, (R)-N-(5-((6-(3-(2′,3′-difluoro-[1,1′-biphenyl]-3-yl)isoxazolidin-2-yl)pyrimidin-4-yl)-amino)-4-methoxy-2-(4-(oxetan-3-yl)-piperazin-1-yl)-phenyl)acrylamide]	< 0.05	
C=CC(=O)Nc1cc(Nc2cc(N3OCC[C@@H]3c3cc(F)cc(-c4cccc(F)c4)c3)ncn2)c(OC)cc1N1CCC(N2CCN(C3CC3)CC2)CC1 [Example 248, (R)-N-(2-(4-(4-cyclopropylpiper-azin-1-yl)piperidin-1-yl)-5-((6-(3-(3′,5-difluoro-[1,1′-biphenyl]-3-yl)-isoxazolidin-2-yl)-pyrimidin-4-yl)-amino)-4-methoxy-phenyl)acrylamide]	< 0.05	
C=CC(=O)Nc1cc(Nc2cc(N3OCC[C@@H]3c3cccc(-c4cccc(C(N)=O)c4)c3)ncn2)c(OC)cc1N1CCN(C)CC1 [Example 325, (R)-3′-(2-(6-((5-acrylamido-2-methoxy-4-(4-methylpiperazin-1-yl)phenyl)-amino)pyrimidin-4-yl)isoxazolidin-3-yl)-[1,1′-biphen-yl]-3-carboxamide]	< 0.05	
C=CC(=O)Nc1cc(Nc2cc(N3OCC[C@@H]3c3cccc(-c4cccc(C)c4C)c3)ncn2)c(OC)cc1N1CCN(C)CC1 [Example 337, (R)-N-(5-((6-(3-(2′,3′-dimethyl-[1,1′-biphenyl]-3-yl)isoxazolidin-2-yl)pyrimidin-4-yl)-amino)-4-methoxy-2-(4-methylpiper-azin-1-yl)phenyl)-acrylamide]	< 0.05	
C=CC(=O)Nc1cc(Nc2cc(N3OCC[C@@H]3c3cccc(-c4ccc(C(F)(F)F)cc4)c3)ncn2)c(OC)cc1N1CCN(C)CC1 [Example 332, (R)-N-(4-methoxy-2-(4-methylpiper-azin-1-yl)-5-((6-(3-(4′-(trifluoro-methyl)-[1,1′-bi-phenyl]-3-yl)-isoxazolidin-2-yl)-pyrimidin-4-yl)-amino)phenyl)-acrylamide]	0.05 to 0.5	
C=CC(=O)Nc1cc(Nc2cc(N3OCC[C@@H]3c3cccc(C(=O)Nc4ccccc4)c3)ncn2)c(OC)cc1N1CCN(C)CC1 [Example 334, (R)-3-(2-(6-((5-acrylamido-2-meth-oxy-4-(4-methyl-piperazin-1-yl)-phenyl)amino)pyr-imidin-4-yl)isox-azolidin-3-yl)-N-phenylbenzamide]	< 0.05	
C=CC(=O)Nc1cc(Nc2cc(N3OCC[C@@H]3c3cccc(-c4ccc(C#N)cc4)c3)ncn2)c(OC)cc1N1CCN(C)CC1 [Example 333, (R)-N-(5-((6-(3-(4′-cyano-[1,1′-biphenyl]-3-yl)-isoxazolidin-2-yl)-pyrimidin-4-yl)-amino)-4-methoxy-2-(4-methylpiper-azin-1-yl)phenyl)-acrylamide]	< 0.05	
C=CC(=O)Nc1cc(Nc2cc(N3OCC[C@@H]3c3ccc(F)c(Oc4cccc(C(F)(F)F)c4)c3)ncn2)c(OC)cc1N1CCN(C)CC1 [Example 259, (R)-N-(5-((6-(3-(4-fluoro-3-(3-(trifluoromethyl)-phenoxy)phenyl)-isoxazolidin-2-yl)-pyrimidin-4-yl)-amino)-4-meth-oxy-2-(4-methyl-piperazin-1-yl)-phenyl)acrylamide]		0.05 to 0.5
C=CC(=O)Nc1cc(Nc2cc(N3OCCC3c3cccc(-c4ccoc4)c3)ncn2)c(OC)cc1N1CCC(N2CCN(C3CC3)CC2)CC1 (stereo not shown) [Example compound 123, N-(2-(4-(4-cyclopropylpiperazin-1-yl)piperidin-1-yl)-5-((6-(3-(3-(furan-3-yl)phenyl)isoxazolidin-2-yl)pyrimidin-4-yl)amino)-4-methoxyphenyl)acrylamide]		< 0.05
C=CC(=O)Nc1cc(Nc2cc(N3OCC[C@@H]3c3cccc(-c4cc(F)cc(F)c4)c3)ncn2)c(OC)cc1N1CCO[C@H](C)C1 [Example 270, N-(5-((6-((R)-3-(3′,5′-difluoro-[1,1′-biphenyl]-3-yl)-isoxazolidin-2-yl)-pyrimidin-4-yl)-amino)-4-methoxy-2-((R)-2-methyl-morpholino)phen-yl)acrylamide]		< 0.05
C=CC(=O)Nc1cc(Nc2cc(N3OCC[C@@H]3c3cccc(-c4cc(F)cc(F)c4)c3)ncn2)c(OC)cc1N1CCC(N2CCN(C3CC3)CC2)CC1 [Example 269, (R)-N-(2-(4-(4-cyclopropylpiper-azin-1-yl)piper-idin-1-yl)-5-((6-(3-(3′,5′-difluoro-[1,1′-biphenyl]-3-yl)isoxazolidin-2-yl)pyrimidin-4-yl)-amino)-4-methoxy-phenyl)acrylamide]		< 0.05
C=CC(=O)Nc1cc(Nc2cc(N3OCC[C@@H]3c3cc(F)cc(Oc4cccc(F)c4)c3)ncn2)c(OC)cc1N1CCOCC1 [Example 222, (R)-N-(5-((6-(3-(3-fluoro-5-(3-fluorophenoxy)-phenyl)isoxazol-idin-2-yl)pyrim-idin-4-yl)amino)-4-methoxy-2-morpholinophen-yl)acrylamide]		< 0.05

The remaining lines, values ahead:

GI50 (BT-474 cancer cells) [µM]	GI50 (SK-BR-3 cancer cells) [µM]	Structure (SMILES)
< 0.05		C=CC(=O)Nc1cc(Nc2cc(N3OCC[C@@H]3c3cccc(-c4cccc(F)c4F)c3)ncn2)c(OC)cc1N1CCN(C)[C@@H](C)C1 [Example 326, N-(5-((6-((R)-3-(2′,3′-difluoro-[1,1′-biphenyl]-3-yl)isoxazolidin-2-yl)pyrimidin-4-yl)amino)-2-((S)-3,4-dimethylpiper-azin-1-yl)-4-meth-oxyphenyl)acryl-amide]
< 0.05		C=CC(=O)Nc1cc(Nc2cc(N3OCC[C@@H]3c3cccc(-c4cccc(F)c4)c3)ncn2)c(OC)cc1N1CCC2(CC1)COC2 [Example 339, (R)-N-(5-((6-(3-(3′-fluoro-[1,1′-biphenyl]-3-yl)-isoxazolidin-2-yl)-pyrimidin-4-yl)-amino)-4-methoxy-2-(2-oxa-7-azas-piro[3.5]nonan-7-yl)phenyl)acryl-amide]
< 0.05		C=CC(=O)Nc1cc(Nc2cc(N3OCC[C@@H]3c3cccc(-c4cccc(F)c4)c3)ncn2)c(OC)cc1N1C[C@@H](C)N[C@@H](C)C1 [Example 329, N-(2-((3S,5R)-3,5-dimethyl-piperazin-1-yl)-5-((6-((R)-3-(3′-fluoro-[1,1′-bi-phenyl]-3-yl)-isoxazolidin-2-yl)pyrimidin-4-yl)amino)-4-meth-oxyphenyl)acryl-amide]
< 0.05		C=CC(=O)Nc1cc(Nc2cc(N3OCC[C@@H]3c3cccc(-c4ccc(OC)nc4)c3)ncn2)c(OC)cc1N1CCN(C)[C@@H](C)C1 [Example 331, N-(2-((S)-3,4-dimethylpiperazin-1-yl)-4-methoxy-5-((6-((R)-3-(3-(6-methoxypyridin-3-yl)phenyl)isoxazol-idin-2-yl)pyrim-idin-4-yl)amino)-phenyl)acrylamide]
< 0.05		C=CC(=O)Nc1cc(Nc2cc(N3OCC[C@@H]3c3cccc(-c4cccc(F)c4)c3)ncn2)c(OC)cc1N1CCN(CCO)CC1 [Example 336, (R)-N-(5-((6-(3-(3′-fluoro-[1,1′-biphenyl]-3-yl)-isoxazolidin-2-yl)-pyrimidin-4-yl)-amino)-2-(4-(2-hydroxyethyl)-piperazin-1-yl)-4-methoxyphenyl)-acrylamide]
< 0.05		C=CC(=O)Nc1cc(Nc2cc(N3OCC[C@@H]3c3cccc(-c4cccc(C(=O)OC)c4)c3)ncn2)c(OC)cc1N1CCN(C)CC1 [Example 338, methyl (R)-3′-(2-(6-((5-acrylamido-2-methoxy-4-(4-methylpiperazin-1-yl)phenyl)-amino)pyrimidin-4-yl)isoxazolidin-3-yl)-[1,1′-biphen-yl]-3-carboxylate]
< 0.05		COc1cc(F)c(NC(=O)/C=C/CN(C)C)cc1Nc1cc(N2OCC[C@@H]2c2cccc(-c3cccc(F)c3)c2)ncn1 [Example 335, (R,E)-4-(dimethyl-amino)-N-(2-fluoro-5-((6-(3-(3′-fluoro-[1,1′-biphen-yl]-3-yl)isoxazol-idin-2-yl)pyrim-idin-4-yl)amino)-4-methoxyphen-yl)but-2-enamide]
< 0.05		C=CC(=O)Nc1cc(Nc2cc(N3OCC[C@@H]3c3cccc(-c4cccc(C#N)c4)c3)ncn2)c(OC)cc1N1CCN(C)CC1 [Example 330, (R)-N-(5-((6-(3-(3′-cyano-[1,1′-biphenyl]-3-yl)-isoxazolidin-2-yl)-pyrimidin-4-yl)-amino)-4-methoxy-2-(4-methylpiper-azin-1-yl)phenyl)-acrylamide]
